{
  "source": "patent US10512656B2",
  "about": "“Compositions and methods for the treatment of lysosomal storage disorders and disorders characterized by lysosomal dysfunction” (Baylor College of Medicine, priority 2016, dated 2019)",
  "key": {"[1]": {"system": "Cln3^Δex7-8 mice", "experiment": "Astrocytosis, GFAP immunohistochemistry", "type": "in vivo, mouse", "conditions": "for decrease of GFAP immunoreactivity: 12 months of age", "experimental": "(§1) Brains were subsequently removed and postfixed overnight. Before sectioning, the brains were cryoprotected in a solution containing 30% sucrose in Tris-buffered saline (TBS: 50 mM Tris, pH 7.6). Consecutive […] floating coronal sections were collected in 96-well plates. Series of sections were then stained with primary antisera against CD68 or GFAP, followed by either rabbit anti-rat (VectorLab) and swine anti-rabbit (DAKO) secondary antibodies, and immunoreactivity detected with Vectastain ABC (avidin-biotin) kit (Vector) and diaminobenzidine as a chromogen.\n(§2) Thirty non-overlapping images were captured, on three consecutive sections, through each region of interest. All RGB images were captured via a live video camera (JVC, 3CCD, KY-F55B), mounted onto a Zeiss Axioplan microscope using a ×40 objective and saved as JPEGs. All parameters including lamp intensity, video camera set-up and calibration were maintained constant throughout image capturing. Images were subsequently analysed using ImageJ analysis software (NIH), using an appropriate threshold that selected the foreground immunoreactivity above background. This threshold was then applied as a constant to all subsequent images analysed per batch of animals and reagent used to determine the specific area of immunoreactivity for each antigen in each region. This analysis was performed blind to genotype. Data were plotted graphically as the mean percentage area of immunoreactivity per field±s.e.m. for each region."}, "[2]": {"system": "Cln3^Δex7-8 mice", "experiment": "Microglial activation, CD68 immunohistochemistry", "type": "in vivo, mouse", "experimental": "as §1\nas §2, with “Data were plotted graphically as the mean percentage area of immunoreactivity per field±s.e.m. for each region.” left out"}, "[3]": {"system": "lysosomal genes", "experiment": "Microarray expression analysis (gene ontology, GSEA) of fibroblasts", "type": "cell-based, human", "experimental": "Total RNA from control and JNCL fibroblasts with and without trehalose treatment (100 mM, 4 days) was used to prepare complementary DNA for hybridization to the Illumina Human HT-12 V4.0 array platform. Experiments were performed in triplicate. Expression analysis was performed at the Microarray Core and Cell and Regulatory Biology, University of Texas, Houston, Tex., USA. A […] was used as a threshold for significance for assessing differential gene expression. GSEA was performed as previously described^10,11. The cumulative distribution function was constructed by performing 1,000 random gene set membership assignments. A nominal P<0.01 and an FDR<10% were used as thresholds for significance of the ES. Gene ontology analysis was performed with the web tool DAVID (https://david.ncifcrf.gov/) using default parameters. Pathway co-expression analyses were performed as previously described^8,9, and Cytoscape was used to represent graphically the expression correlation data."}, "[4]": {"system": "Akt", "experiment": "Akt activity in HeLa cells, time course immunoblot", "type": "cell-based, human", "experimental": "FIG. 14. Akt phosphorylates TFEB at Ser467. […] Dashed boxes (upper row) show the location of the higher power inserts (lower row). (b) Subcellular fractionation of HeLa/TFEB cells incubated with the same kinase inhibitors. (c) Multi-alignment of TFEB amino-acid sequences from the following species: Ac, Anolis carolensis; Bt, Bos taurus; Dr, Danio rerio; Fc, Felix catus; Gg, gallus gallus; Hs, Homo sapiens; La, Loxodonta africana; Mm, Mus musculus; Rn, Rattus Norvegicus; Sh, Sarcophilus harrisii; Sp, Strongylocentrotus purpuratus; XI, Xenopus laevis. A consensus logo of Akt phosphorylation sites (generated at weblogo.berkeley.edu/logo.cgi) is aligned with TFEB sequences. Position 467 refers to the human protein sequence. (d) Subcellular localization of TFEB and TFEB(S467A). (e) Expression analysis of lysosomal and autophagy genes in HeLa cells transfected with TFEB or TFEB(S467A). […]\nBrain tissue and cultured cells were collected and lysed in RIPA buffer (50 mM Tris-HCl, ph 7.4, 1% NP40, 0.5% Na-deoxycholate, 0.1% SDS, 150 mM NaCl, 2 mM EDTA and 50 mM NaF) including a cocktail of protease (Roche) and phosphatase (SIGMA) inhibitors. Protein concentrations were measured with the bicinchoninic acid protein assay kit (Pierce, Rockford, Ill.), using bovine serum albumin as standard. […] Western blot images were acquired by LAS 4000 (GE Healthcare) and quantified using ImageJ. […]"}, "[5]": {"system": "LAMP1", "experiment": "LAMP1 immunoblot in primary cortical astrocyte cultures", "type": "cell-based, mouse", "conditions": "astrocytes from WT and Cln3^Δex7-8 mice, 100 mM trehalose 4 days", "experimental": "Astrocytes were isolated from P0-1 mice and plated on poly-D-lysine coated six-well plates (BD Biosciences) in the presence of DMEM high glucose, supplemented with 10% FBS and 100 U/ml penicillin and […] streptomycin. After 7 days, the glial cell layer was removed and astrocytes were plated for treatment. An amount of 100 mM of trehalose was dissolved in the media the day after and kept for 4 days. Finally, astrocytes were collected and protein extracts were analysed by western blot assay.\nBrain tissue and cultured cells were collected and lysed in RIPA buffer (50 mM Tris-HCl, ph 7.4, 1% NP40, 0.5% Na-deoxycholate, 0.1% SDS, 150 mM NaCl, 2 mM EDTA and 50 mM NaF) including a cocktail of protease (Roche) and phosphatase (SIGMA) inhibitors. Protein concentrations were measured with the bicinchoninic acid protein assay kit (Pierce, Rockford, Ill.), using bovine serum albumin as standard. Lysates were separated via SDS-polyacrylamide gel electrophoresis (PAGE) and then transferred to nitrocellulose membranes. Blots were incubated in blocking buffer (5%, w/v, dried skimmed milk in Tris-buffered saline, pH 7.4 and 0.2% Tween 20, TBST) followed by overnight incubation with appropriate antibodies diluted in blocking buffer (5% dry milk). Western blot images were acquired by LAS 4000 (GE Healthcare) and quantified using ImageJ. Images have been cropped for presentation."}},
  "data": [
    {"smiles": "OC[C@H]1O[C@H](O[C@H]2O[C@H](CO)[C@@H](O)[C@H](O)[C@H]2O)[C@H](O)[C@@H](O)[C@@H]1O", "note": "[trehalose, a-D-glucopyranosyl a-D-glucopyranoside]", "values": [
      {"measurement": "progressive neuroinflammation (GFAP and CD68 immunoreactivity)", "setting": "[1]; S1BF and VPM/VPL, 7 and 12 months of age", "value": "mitigated"},
      {"measurement": "decrease of GFAP immunoreactivity", "setting": "[1]; S1BF region", "value": 43, "unit": "%"},
      {"measurement": "decrease of GFAP immunoreactivity", "setting": "[1]; VPM/VPL region", "value": 67, "unit": "%"},
      {"measurement": "microglial activation (CD68)", "setting": "[2]; S1BF region, 7 months of age", "value": "significantly rescued"},
      {"measurement": "reduction of microglial activation (CD68)", "setting": "[2]; VPM/VPL region, 12 months of age", "value": 48, "unit": "%"},
      {"measurement": "GSEA enrichment score, TFEB direct targets with a known role in lysosomal metabolism", "setting": "[3]; control fibroblasts, P<0.0001", "value": 0.82},
      {"measurement": "GSEA enrichment score, lysosomal genes", "setting": "[3]; control fibroblasts, P<0.0001", "value": 0.67},
      {"measurement": "gene ontology fold enrichment of lysosomal metabolism genes", "setting": "[3]; genes with at least twofold change, JNCL and control fibroblasts, trehalose 100 mM 4 days", "value": "> 5"},
      {"measurement": "Akt activity", "setting": "[4]", "value": "inhibited Akt activity"},
      {"measurement": "LAMP1 levels", "setting": "[5]", "value": "increased LAMP1 levels"}
    ]}
  ]
}
